What all share (format): binding
The subject of experiment [1] is mixture of Biotinylated Antibody A Reagent and Biotinylated Antibody L Reagent. As to the kind of experiment: LOCI competitive cortisol immunoassay, cross-reactivity with mixtures of Biotinylated Antibody A and L Reagents. Conditions: steroid-stripped serum with cortisol. Here is the method:
(§1) The assay used for screening purposes was conducted on the DIMENSION® VISTA® instrument (system) (Siemens Healthcare Diagnostics Inc., Newark Del.). Initially, 20 μL Biotinylated Antibody Reagent with 15 μL system water was added to the vessel. After 22 seconds, 15 μL sample with 15 μL system water were added to the vessel. After almost 4 minutes, 20 μL Chemibead Reagent with 15 μL system water were added to the vessel. Approximately 7 minutes later, 20 μL Sensibead Reagent with 135 μL system water was added to the vessel. The LOCI® read was taken after approximately 5 minutes. The assay from the first reagent addition to the final read took approximately 16 minutes. The contents of the vessel when the final read is taken were as follows: 2 ng/mL Biotinylated Antibody Reagent, 4 μg/mL Chemibead Reagent, 56 μg/mL Sensibead Reagent, and […] sample. The assay is a competitive format, which means that the greater the concentration of analyte in the sample, the smaller is the signal generation. This is because a detectable complex is formed by the Biotinylated Antibody Reagent, Chemibead Reagent, and Sensibead Reagent in the absence of analyte. The presence of analyte decreases the proportion of Biotinylated Antibody Reagent that is free to form detectable complexes.
(§2) Initial testing used Biotinylated Antibody A Reagent with the other reagents and the methodology described above to analyze the steroid-stripped serum with cortisol. The panel of 34 cross-reactants were individually added to the steroid-stripped serum with a defined concentration of cortisol (5 ng/dL) and assayed. Cross-reactivity data were calculated as follows:
(§3) [formula] The same testing was performed using Biotinylated Antibody L Reagent. The compilation of the percent cross-reactivities for the 34 compounds is referred to as the cross-reactivity profile. The apparent cortisol concentration is the cortisol value obtained when testing a sample containing cortisol and the interfering substance by the above test method that also detects the interfering substance to some degree.
A further study was performed by mixing Biotinylated Antibody A Reagent with Biotinylated Antibody L Reagent in a 50:50 mixture; 80% Biotinylated Antibody A Reagent: 20% Biotinylated Antibody L Reagent; 75% Biotinylated Antibody A Reagent: 25% Biotinylated Antibody L Reagent; and 70% Biotinylated Antibody A Reagent: 30% Biotinylated Antibody L Reagent. […] These reagents were used to test cross-reactivity in stripped serum with cortisol.

Experiment [2] concerns Antibody A specific for cortisol (clone 16DC/17.7, IgG1κ). The experiment is described as follows: LOCI competitive cortisol immunoassay, cross-reactivity screening with Biotinylated Antibody A Reagent. The conditions noted are these: 100% A Biotinylated Antibody; steroid-stripped serum with cortisol (5 ng/dL). Here is the method: (§4) The antibodies were subjected to analytical size exclusion chromatography prior to any manipulations.
(§5) NHS-PEO4-Biotin was dissolved fresh at 10 mg/mL in Antibody Dialysis Buffer. […] The mixture was rocked at 25° C. for exactly 3 hours. A 200 mM solution of glycine was prepared by dissolving 750 mg glycine in Antibody Dialysis Buffer to a total volume of 50 mL. At the end of the 3-hour biotinylation reaction, 1.52 mL of the 200 mM glycine solution was added to the reaction mixture. The quenched reaction mixture was rocked an additional 60 minutes at 25° C.
(§6) The biotinylated antibody was then purified using preparatory HPLC using Antibody Dialysis Buffer as the mobile phase. […] This reagent was designated as the Biotinylated Antibody Reagent.
as §1, §2, §3

The test system of experiment [3] is Antibody L specific for cortisol (clone XM210, IgG2a). The experiment is described as follows: LOCI competitive cortisol immunoassay, cross-reactivity screening with Biotinylated Antibody L Reagent. Conditions: 100% L Biotinylated Antibody; steroid-stripped serum with cortisol (5 ng/dL). As to the method:
as §4, §5, §6, §1, §2, §3

The mark [4] stands for this setting: 70% A 30% L Biotinylated Antibody.
Where [5] appears, read: 75% A 25% L Biotinylated Antibody.
Where [6] appears, read: 80% A 20% L Biotinylated Antibody.

Consider `C[C@]12CC(=O)[C@H]3[C@@H](CCC4=CC(=O)CC[C@@]43C)[C@@H]1CC[C@@H]2C(=O)CO` [dehydrocorticosterone], for which the percent cross reactivity in experiment [1] (setting [4]) is on record as 0.7%; in experiment [1] (setting [5]), 0.7%; in experiment [1] (setting [6]), 0.7%; in experiment [2] it was 0.6%; in experiment [3], 0.8%.
Regarding `CC(=O)OCC(=O)[C@@]1(O)CC[C@H]2[C@@H]3CCC4=CC(=O)CC[C@]4(C)[C@@]3(F)[C@@H](O)C[C@@]21C` [fluorocortisone acetate], the percent cross reactivity in experiment [1] (setting [4]) was 27.8%; in experiment [1] (setting [5]), 20.9%; in experiment [1] (setting [6]), 17.0%; in experiment [2], 35.3%; in experiment [3], 69.3%.
For the compound `C[C@]12C=CC(=O)C=C1CC[C@@H]1[C@@H]2[C@@H](O)C[C@@]2(C)[C@H]1CC[C@]2(O)C(=O)CO` [prednisolone], the percent cross reactivity in experiment [1] (setting [4]) is listed as 12.4%; in experiment [1] (setting [5]), 12.2%; in experiment [1] (setting [6]), 12.4%; in experiment [2], 13.6%; in experiment [3] it was 10.2%.
On to `C[C@]12C=CC(=O)C=C1CC[C@@H]1[C@@H]2C(=O)C[C@@]2(C)[C@H]1CC[C@]2(O)C(=O)CO` [prednisone], for which the percent cross reactivity is 1.1% in experiment [1] (setting [4]); 1.3% in experiment [1] (setting [5]); 1.5% in experiment [1] (setting [6]); 26.5% in experiment [2]; 0.6% in experiment [3].
For the compound `CC(=O)[C@H]1CC[C@H]2[C@@H]3CCC4=CC(=O)CC[C@]4(C)[C@H]3CC[C@]12C` [progesterone], the percent cross reactivity in experiment [1] (setting [4]), in experiment [1] (setting [5]), in experiment [1] (setting [6]), in experiment [2] and in experiment [3] was 0.6% each time.
On to `C[C@]12CCC(=O)C=C1CC[C@@H]1[C@@H]2[C@@H](O)C[C@@]2(C)[C@H]1CC[C@]2(O)C(=O)COS(=O)(=O)O` [sulphate 21-cortisol], for which the percent cross reactivity in experiment [1] (setting [4]) came out at 0.6%; in experiment [1] (setting [5]), 0.7%; in experiment [1] (setting [6]) it was 0.9%; in experiment [2], 22.5%; in experiment [3], 0.2%.
For the compound `C[C@]12CC[C@@H](O)C[C@H]1CC[C@@H]1[C@@H]2CC[C@@]2(C)[C@H]1CC[C@]2(O)C(=O)CO` [tetrahydro-11-deoxycortisol], the percent cross reactivity in experiment [1] (setting [4]) amounted to 0.2%; in experiment [1] (setting [5]) it was 0.2%; in experiment [1] (setting [6]) it was 0.2%; in experiment [2], 0.3%; in experiment [3] it was 0.2%.
Take `C[C@]12CC[C@@H](O)C[C@H]1CC[C@@H]1[C@@H]2[C@@H](O)C[C@@]2(C)[C@H]1CC[C@]2(O)C(=O)CO` [tetrahydrocortisol]: the percent cross reactivity in experiment [1] (setting [4]) was 0.1%; in experiment [1] (setting [5]), 0.1%; in experiment [1] (setting [6]), 0.0%; in experiment [2] it was 0.0%; in experiment [3] it was 0.1%.
As for `C[C@]12CC[C@@H](O)C[C@H]1CC[C@@H]1[C@@H]2C(=O)C[C@@]2(C)[C@H]1CC[C@]2(O)C(=O)CO` [tetrahydrocortisone], the percent cross reactivity in experiment [1] (setting [4]) worked out at 0.2%; in experiment [1] (setting [5]) it was 0.2%; in experiment [1] (setting [6]), 0.3%; in experiment [2], 0.5%; in experiment [3] it was 0.1%.
As for `C[C@]12CC[C@@H](O)C[C@H]1CC[C@@H]1[C@@H]2[C@@H](O)C[C@@]2(C)[C@H]1CC[C@]2(O)[C@@H](O)CO` [α-cortol], the percent cross reactivity in experiment [1] (setting [4]) worked out at 0.7%; in experiment [1] (setting [5]), 0.6%; in experiment [1] (setting [6]), 0.5%; in experiment [2], 0.2%; in experiment [3], 1.0%.
The corresponding values for `C[C@]12CC[C@@H](O)C[C@H]1CC[C@@H]1[C@@H]2C(=O)C[C@@]2(C)[C@H]1CC[C@]2(O)[C@@H](O)CO` [α-cortolone] are 0.0%, 0.0%, 0.0%, 0.0% and 0.0%.
For `C[C@]12CC[C@@H](O)C[C@H]1CC[C@@H]1[C@@H]2[C@@H](O)C[C@@]2(C)[C@H]1CC[C@]2(O)[C@H](O)CO` [β-cortol] the same measures were 0.0%, 0.0%, 0.0%, 0.0% and 0.0%.
For `C[C@]12CC[C@@H](O)C[C@H]1CC[C@@H]1[C@@H]2C(=O)C[C@@]2(C)[C@H]1CC[C@]2(O)[C@H](O)CO` [β-cortolone] the same measures were 0.0%, 0.0%, 0.0%, 0.0% and 0.0%.

These data come from patent publication US10088490B2, “Assay for analytes using multiple receptors” (Siemens Healthcare Diagnostics Inc., priority 2010, dated 2018).
